Measured values from publication PMC4865820, “Branched Peptide, B2088, Disrupts the Supramolecular Organization of Lipopolysaccharides and Sensitizes the Gram-negative Bacteria” (Scientific Reports, 2016).
Positions of bridges follow the written chain, without caps; N, C: chain ends. Residues, ends and D or L forms follow the SMILES beside them. Chains are numbered I, II in the order given.

Tests used:
P. aeruginosa ATCC 9027 = assay: Mice model of infectious keratitis; type: in vivo, C57BL6 mice; conditions: for Corneal bacterial burden: 0.15% gatifloxacin or 0.05% B2088 alone
Experimental: The marked synergism between B2088 and gatifloxacin in the mammalian cell culture model prompted us to investigate the efficacy of the combinations in vivo. A mouse model of keratitis was used to examine the efficacy of peptide-antibiotics combinations. After infection of the cornea with P. aeruginosa ATCC 9027 strains, mice were treated with gatifloxacin (0.15% w/v) or B2088 (0.05%) alone as well as gatifloxacin (0.15%) in combination with B2088 (0.05% w/v). […] (Fig. 7c,d and Supplementary Fig. S3).
Wild type C57BL6 (6–8 weeks old and weighs about 20-30 gram) female mice purchased from National University of Singapore were used for this study. P. aeruginosa ATCC 9027 was grown overnight in TSA (Tryptic Soy Agar) at 37 °C. Concentration of 3 × 10^8 bacterial stock was prepared for mice corneal infection with United States Phosphate Buffer (USP) by resuspending few colonies from the overnight cultured TSA plates.
Healthy mice with good corneal clarity were chosen for this study through careful monitoring with slit-lamp biomicroscopy. A total of 60 mice were used for this study (n = 12 for 5 groups) at different time points (day1, day2, day3 post treatment). The animals were anesthetized subcutaneously by 0.2 ml of ketamine (100 mg/ml) and 0.1 ml of xylazil (20 mg/ml) in 0.7 ml of normal saline (0.08 ml/mice). […] Topical application of bacteria suspension (10 μl) was applied to the scratched cornea. All the animals had been treated with the antibiotics or peptide/antibiotics combinations (3 times/day) started from day1 post infection.
At post treatment day1, day 2 and day 3, four animals from each group were euthanized. The infected corneas was dissected and processed for colony counting. Single individual cornea from different groups was homogenized in sterile 0.9% NaCl containing 0.25% BSA and diluted serially (10^1 to 10^2 fold dilution), plated in duplicates on TSA plates and incubated for 48 h at 37 °C. The number of viable bacteria was enumerated as before.

lipid A = assay: BODIPY TR cadaverine (BC) displacement assay with lipid A; type: binding; conditions: 5 mM HEPES pH 7.4; fluorescence ex 580/em 620 nm
Excerpt: To investigate the interaction of B2088 with LPS, we performed the BODIPY TR cadaverine (BC) displacement assay reported by Wood et al.[22]. The probe binds to the lipid A part of the LPS with moderate affinity and can be displaced by putative LPS-binding molecules. The method was used to probe the affinity of polycationic molecules and LPS binding proteins. First, we determined the affinity of polymyxin B (PMB), a lipopeptide cyclic antibiotic which has a high affinity for LPS. […] Figure 1a,b show the concentration-dependent displacement of LPS/lipid A-bound BC upon addition of B2088. […] To confirm the importance of branching, we determined the BC50 for a linear retrodimer having the amino acid sequence, […] (Fig. 1d). […]
The BC displacement assay was used to determine the ability of each peptide to bind to LPS. […] The maximum fluorescence intensity (Fmax) was determined using a mixture containing 100 μl PMB (50 μg/ml) and 100 μl BC:LPS solution, as PMB is considered the ‘gold standard’ for LPS-sequestering agents. The minimum fluorescence intensity (F0) was measured using 200 μl of BC:LPS mixture to determine the background noise for this experiment. Fluorescence measurements for each peptide (F) were determined using a microplate reader (Model: TECAN Infinite 200, Austria) with excitation and emission wavelengths set at 580 nm and 620 nm respectively. […]

[1] = test system: human corneal epithelial (hTCEpi) cells
Excerpt: To assess the safety of B2088 as a part of preclinical assessment, we used the xCELLigence system for the real-time analysis of cytotoxicity.

FITC-labelled LPS = assay: FITC-LPS fluorescence interaction assay; type: binding; conditions: 5 μg/ml FITC-LPS, ex 485/em 515 nm, 25 °C
Excerpt: To confirm the findings from ITC experiments, we examined the ultrastructure of LPS or the LPS/B2088 complex by electron microscopy. TEM analysis of the LPS indicated a ribbon-like structure (Fig. 3a), consistent with previous studies. For the LPS-B2088 complex, the peptide:LPS ratios were chosen to epitomize the initial (high peptide:LPS) or final (low peptide:LPS) injections of the ITC curves shown in Fig. 2a–c. At low peptide:LPS ratio (~0.04), more electron-dense surface appeared presumably due to binding of the peptide to LPS may cause partial/complete neutralization of the negative charges and the ribbon-like structure of LPS remained intact (Fig. 3b). […]
The interaction between FITC-LPS was determined by monitoring the change in fluorescence emission intensity (λex = 485 nm and λem = 515 nm) using a Quanta Master spectrophotometer (Photon Technology International, NJ, USA) with a constant slit width of 0.5 nm at 25 °C. Briefly, the emission intensity of 5 μg/ml of FITC-LPS was monitored continuously in a 1 ml cuvette until it remained constant. 10 μl a concentrated stock solution of B2088 was added and the changes in fluorescence intensity were recorded as before.

Structure (SMILES)	Corneal bacterial burden (P. aeruginosa ATCC 9027)	Corneal clarity and bacterial load (P. aeruginosa ATCC 9027; topical 0.3% gatifloxacin, 3 times/day, vs PBS-treated mice)	ED50 (50% displacement of BC dye from lipid A) (lipid A) [nM]	Change in CI values with time [1]	Reduction of antibiotic use in the presence of B2088 (P. aeruginosa ATCC 9027; 0.05% B2088 with gatifloxacin)	Peptide concentration above which dequenching of FITC-LPS fluorescence occurred (FITC-labelled LPS)
COc1c(N2CCNC(C)C2)c(F)cc2c(=O)c(C(=O)O)cn(C3CC3)c12 (stereo not shown) [Gatifloxacin]	increased bacterial burden	clear cornea and less bacterial load	–	–	–	–
CC(C)[C@H](NC(=O)[C@H](CCCCN)NC(=O)[C@H](CCCNC(=N)N)NC(=O)CNC(=O)[C@@H](N)CCCNC(=N)N)C(=O)N[C@H](C(=O)N[C@@H](CCCNC(=N)N)C(=O)N[C@@H](CCCNC(=N)N)C(=O)NCCCC[C@H](NC(=O)[C@H](CCCNC(=N)N)NC(=O)[C@H](CCCNC(=N)N)NC(=O)[C@@H](NC(=O)[C@@H](NC(=O)[C@H](CCCCN)NC(=O)[C@H](CCCNC(=N)N)NC(=O)CNC(=O)[C@@H](N)CCCNC(=N)N)C(C)C)C(C)C)C(=O)N[C@@H](CCCCN)C(=O)O)C(C)C [B2088] (I: H-RGRKVVRRKK-OH / II: H-RGRKVVRR; amide I:9-II:C; N-terminus and C-terminus assumed)	increased bacterial burden	–	700 ± 140	significant increase in CI values	about 50%	above 25 μg/ml
